Measured values taken from patent US12521440B2, “Degradation of bruton's tyrosine kinase (BTK) by conjugation of BTK inhibitors with E3 ligase ligand and methods of use” (BeOne Medicines I GmbH, priority 2021, dated 2026).

Assays:
BTK = target: T1, BTK (Homo sapiens, UniProt Q06187); assay: BTK degradation in TMD-8 cells (HTRF assay); format: cell-based; conditions: 6 h treatment, HTRF BTK degradation IC50 (DC50)
T1 construct: endogenous in cells; host or cells: TMD-8 cells
Protocol: TMD-8 cells were treated with compounds diluted in 0.2% DMSO, dilution was done according to the following protocol: (1) making 500×stock solution in DMSO from 1 mM by 6-fold dilution, total 8 doses were included; (2) making 2×solution in cell culture medium by transferring 0.5 μl 500×stock solution into 125 μl medium; (3) adding 15 μl of 2×solution to cells for incubation of 6 h.
After 6 h treatment, 10 μl 4×lysis buffer was added to each well; the plate was sealed and incubated for 30 min at room temperature on a plate shaker; Once the cells was lysed, 16 μL of cell lysate were transferred to a PE 384-well HTRF detection plate; 4 μL of pre-mixed HTRF antibodies were added to each well; the plate was covered with a plate sealer, and then spinned at 1000 rpm for 1 min, then incubated overnight at room temperature; the results were read on BMG PheraStar with HTRF protocol (337 nm-665 nm-620 nm).
(§1) The IC50 (DC50) value of a compound can be obtained by fitting the following equation Y=Bottom+(TOP−Bottom)/(1+((IC50/X)^hillslope)) wherein, X and Y are known values, and IC50, Hillslope, Top and Bottom are the parameters obtained by fitting with software. Y is the inhibition percentage (calculated from the equation), X is the concentration of the compound; IC50 is the concentration of the compound when the 50% inhibition is reached. The smaller the IC50 value is, the stronger the inhibitory ability of the compound is. Vice versa, the higher the IC50 value is, the weaker the ability the inhibitory ability of the compound is; Hillslope represents the slope of the fitted curve, generally around 1*; Bottom represents the minimum value of the curve obtained by data fitting, which is generally 0%±20%; Top represents the maximum value of the curve obtained by data fitting, which is generally 100%±20%. The experimental data were fitted by calculating and analyzing with Dotmatics data analysis software. HEK-293 Cell Treatment

HEK-293 cells = assay: HEK-293 cytotoxicity detection (CellTiter-Glo); format: cell-based; conditions: Homo sapiens, 72 h incubation, read-out: HEK293
From the text: as §1
HEK-293 cells were treated with compounds diluted in 0.2% DMSO, dilution was done according to the following protocol: (1) making 500×stock solution in DMSO from 5 mM by 4-fold dilution, total 8 doses were included; (2) making 2×solution in cell culture medium by transferring 0.5 ul 500×stock solution into 125 ul medium; (3) adding 50 ul of 2×solution to cells for incubation of 72 h.
25 μl of the CellTiter-Glo® Reagent [(Promega)—Cat No. G7572] was added to each well in the 96-well plate. The contents were mixed for 2 minutes on an orbital shaker to induce cell lysis. The plate was then allowed to incubate at room temperature for 10 minutes to stabilize luminescent signal. Luminescence was recorded on BMG PheraStar with luminescence protocol.
as §1, with “IC50” for “IC50 (DC50)”, “Wherein,” for “wherein,”, “software.” for “software. HEK-293 Cell Treatment”

T1 sequence (Q06187 whole entry): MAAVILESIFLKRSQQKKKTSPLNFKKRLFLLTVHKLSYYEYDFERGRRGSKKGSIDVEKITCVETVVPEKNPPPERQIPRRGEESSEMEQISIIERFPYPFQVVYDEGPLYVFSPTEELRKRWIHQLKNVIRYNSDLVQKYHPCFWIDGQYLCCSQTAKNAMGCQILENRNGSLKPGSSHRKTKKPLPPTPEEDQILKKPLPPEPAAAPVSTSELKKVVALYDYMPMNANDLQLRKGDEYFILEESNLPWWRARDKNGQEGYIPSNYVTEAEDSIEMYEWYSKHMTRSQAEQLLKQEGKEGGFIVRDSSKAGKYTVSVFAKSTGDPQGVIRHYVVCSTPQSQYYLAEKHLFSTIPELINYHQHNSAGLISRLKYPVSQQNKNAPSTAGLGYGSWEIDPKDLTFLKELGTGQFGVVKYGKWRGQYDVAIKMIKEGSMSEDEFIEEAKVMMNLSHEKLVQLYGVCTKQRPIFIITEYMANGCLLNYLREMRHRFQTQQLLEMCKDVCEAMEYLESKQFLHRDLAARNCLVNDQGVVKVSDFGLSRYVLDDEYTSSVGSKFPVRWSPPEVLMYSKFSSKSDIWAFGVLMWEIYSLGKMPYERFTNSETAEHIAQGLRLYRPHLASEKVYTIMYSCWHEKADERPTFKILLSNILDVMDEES

Row | Structure (SMILES) | DC50 (BTK) | IC50 (HEK-293 cells)
1 | Cc1cc(-c2cc(Nc3ccc(N4CCN(CC5CCN(c6ccc(N7CCC(=O)NC7=O)cc6)CC5)CC4)nc3)ncn2)ccc1[C@@H](C)NC(=O)c1nc(C(C)(C)C)no1 [Example 13, (R)-3-(tert-butyl)-N-(1-(4-(6-((6-(4-((1-(4-(2,4-dioxotetrahydropyrimidin-1(2H)-yl)phenyl)piperidin-4-yl)methyl)piperazin-1-yl)pyridin-3-yl)amino)pyrimidin-4-yl)-2-methylphenyl)ethyl)-1,2,4-oxadiazole-5-carboxamide] | 32.7 nM | > 10000 nM
2 | Cc1cc(-c2cc(Nc3ncc(N4CCN(CC5CCN(c6ccc(N7CCC(=O)NC7=O)cc6)CC5)CC4)cn3)ncn2)ccc1[C@@H](C)NC(=O)c1nc(C(C)(C)C)no1 [Example 14, (R)-3-(tert-butyl)-N-(1-(4-(6-((5-(4-((1-(4-(2,4-dioxotetrahydropyrimidin-1(2H)-yl)phenyl)piperidin-4-yl)methyl)piperazin-1-yl)pyrimidin-2-yl)amino)pyrimidin-4-yl)-2-methylphenyl)ethyl)-1,2,4-oxadiazole-5-carboxamide] | 3.21 nM | > 10000 nM
3 | Cc1cc(-c2cc(Nc3ccc(N4CCN(CC5CCN(c6ccc(N7CCC(=O)NC7=O)cc6)CC5)CC4)nn3)ncn2)ccc1[C@@H](C)NC(=O)c1nc(C(C)(C)C)no1 [Example 15] | 0.638 nM | > 10000 nM
4 | Cc1cc(-c2cc(Nc3ccc(N4CCN(CC5CCN(c6ccc(N7CCC(=O)NC7=O)cc6)CC5)CC4)cn3)ncn2)ccc1[C@@H](C)NC(=O)c1nc(C(C)(C)C)no1 [Example 16, (R)-3-(tert-butyl)-N-(1-(4-(6-((5-(4-((1-(4-(2,4-dioxotetrahydropyrimidin-1(2H)-yl)phenyl)piperidin-4-yl)methyl)piperazin-1-yl)pyridin-2-yl)amino)pyrimidin-4-yl)-2-methylphenyl)ethyl)-1,2,4oxadiazole-5-carboxamide] | 1.29 nM | > 10000 nM
5 | Cc1cc(-c2cc(Nc3ccc(N4CCN(CC5CCN(c6ccc(N7CCC(=O)NC7=O)c(F)c6)CC5)CC4)cn3)ncn2)ccc1[C@@H](C)NC(=O)c1nc(C(C)(C)C)no1 [Example 17, (R)-3-(tert-butyl)-N-(1-(4-(6-((5-(4-((1-(4-(2,4-dioxotetrahydropyrimidin-1(2H)-yl)-3-fluorophenyl)piperidin-4-yl)methyl)piperazin-1-yl)pyridin-2-yl)amino)pyrimidin-4-yl)-2-methylphenyl)ethyl)-1,2,4-oxadiazole-5-carboxamide] | 2.2 nM | > 10000 nM
6 | Cc1cc(-c2cc(Nc3ccc(N4CCN(CC5CCN(c6ccc(N7CCC(=O)NC7=O)c(C)c6)CC5)CC4)cn3)ncn2)ccc1[C@@H](C)NC(=O)c1nc(C(C)(C)C)no1 [Example 18, (R)-3-(tert-butyl)-N-(1-(4-(6-((5-(4-((1-(4-(2,4-dioxotetrahydropyrimidin-1(2H)-yl)-3-methylphenyl)piperidin-4-yl)methyl)piperazin-1-yl)pyridin-2-yl)amino)pyrimidin-4-yl)-2-methylphenyl)ethyl)-1,2,4-oxadiazole-5-carboxamide] | 1.15 nM | > 10000 nM
7 | Cc1cc(-c2cc(Nc3ccc(N4CCN(CC5CN(c6ccc(C7CCC(=O)NC7=O)cc6)C5)CC4)cn3)ncn2)ccc1[C@@H](C)NC(=O)c1nc(C(C)(C)C)no1 (stereo partly drawn) [Example 19, 3-(tert-butyl)-N-((1R)-1-(4-(6-((5-(4-((1-(4-(2,6-dioxopiperidin-3-yl)phenyl)azetidin-3-yl)methyl)piperazin-1-yl)pyridin-2-yl)amino)pyrimidin-4-yl)-2-methylphenyl)ethyl)-1,2,4-oxadiazole-5-carboxamide] | 2.51 nM | > 10000 nM
8 | Cc1cc(-c2cc(Nc3ccc(N4CC(CN5CCN(c6ccc(N7CCC(=O)NC7=O)cc6)CC5)C4)cn3)ncn2)ccc1[C@@H](C)NC(=O)c1nc(C(C)(C)C)no1 [Example 20, (R)-3-(tert-butyl)-N-(1-(4-(6-((5-(3-((4-(4-(2,4-dioxotetrahydropyrimidin-1(2H)-yl)phenyl)piperazin-1-yl)methyl)azetidin-1-yl)pyridin-2-yl)amino)pyrimidin-4-yl)-2-methylphenyl)ethyl)-1,2,4-oxadiazole-5-carboxamide] | 1.23 nM | > 10000 nM
9 | Cc1cc(-c2cc(Nc3ccc(N4CCC(CN5CCN(c6ccc(N7CCC(=O)NC7=O)cc6)CC5)CC4)cn3)ncn2)ccc1[C@@H](C)NC(=O)c1nc(C(C)(C)C)no1 [Example 21, (R)-3-(tert-butyl)-N-(1-(4-(6-((5-(4-((4-(4-(2,4-dioxotetrahydropyrimidin-1(2H)-yl)phenyl)piperazin-1-yl)methyl)piperidin-1-yl)pyridin-2-yl)amino)pyrimidin-4-yl)-2-methylphenyl)ethyl)-1,2,4-oxadiazole-5-carboxamide] | 2.11 nM | > 10000 nM
10 | Cc1cc(-c2cc(Nc3ccc(N4CCN(CC5CN(c6ccc(N7CCC(=O)NC7=O)cc6)C5)CC4)cn3)ncn2)ccc1[C@@H](C)NC(=O)c1nc(C(C)(C)C)no1 [Example 22, (R)-3-(tert-butyl)-N-(1-(4-(6-((5-(4-((1-(4-(2,4-dioxotetrahydropyrimidin-1(2H)-yl)phenyl)azetidin-3-yl)methyl)piperazin-1-yl)pyridin-2-yl)amino)pyrimidin-4-yl)-2-methylphenyl)ethyl)-1,2,4-oxadiazole-5-carboxamide] | 1.58 nM | > 10000 nM
11 | Cc1cc(-c2cc(Nc3ccc(C4CN(CC5CCN(c6ccc(N7CCC(=O)NC7=O)cc6)CC5)C4)cn3)ncn2)ccc1[C@@H](C)NC(=O)c1nc(C(C)(C)C)no1 [Example 23, (R)-3-(tert-butyl)-N-(1-(4-(6-((5-(1-((1-(4-(2,4-dioxotetrahydropyrimidin-1(2H)-yl)phenyl)piperidin-4-yl)methyl)azetidin-3-yl)pyridin-2-yl)amino)pyrimidin-4-yl)-2-methylphenyl)ethyl)-1,2,4-oxadiazole-5-carboxamide] | 1.14 nM | 2900 nM
12 | Cc1cc(-c2cc(Nc3ccc(N4CCN(C[C@@H]5CCN(c6ccc(N7CCC(=O)NC7=O)cc6)C5)CC4)cn3)ncn2)ccc1[C@@H](C)NC(=O)c1nc(C(C)(C)C)no1 [Example 24, 3-(tert-butyl)-N—((R)-1-(4-(6-((5-(4-(((S)-1-(4-(2,4-dioxotetrahydropyrimidin-1(2H)-yl)phenyl)pyrrolidin-3-yl)methyl)piperazin-1-yl)pyridin-2-yl)amino)pyrimidin-4-yl)-2-methylphenyl)ethyl)-1,2,4-oxadiazole-5-carboxamide] | 5.63 nM | > 10000 nM
13 | Cc1cc(-c2cc(Nc3ccc(N4CCN(C(=O)C5CN(c6ccc(N7CCC(=O)NC7=O)cc6)C5)CC4)cn3)ncn2)ccc1[C@@H](C)NC(=O)c1nc(C(C)(C)C)no1 [Example 25, (R)-3-(tert-butyl)-N-(1-(4-(6-((5-(4-(1-(4-(2,4-dioxotetrahydropyrimidin-1(2H)-yl)phenyl)azetidine-3-carbonyl)piperazin-1-yl)pyridin-2-yl)amino)pyrimidin-4-yl)-2-methylphenyl)ethyl)-1,2,4-oxadiazole-5-carboxamide] | 0.935 nM | > 10000 nM
14 | Cc1cc(-c2cc(Nc3ccc(N4CCN(C(=O)C5CN(c6ccc(C7CCC(=O)NC7=O)cc6)C5)CC4)cn3)ncn2)ccc1[C@@H](C)NC(=O)c1nc(C(C)(C)C)no1 (stereo partly drawn) [Example 26, 3-(tert-butyl)-N-((1R)-1-(4-(6-((5-(4-(1-(4-(2,6-dioxopiperidin-3-yl)phenyl)azetidine-3-carbonyl)piperazin-1-yl)pyridin-2-yl)amino)pyrimidin-4-yl)-2-methylphenyl)ethyl)-1,2,4-oxadiazole-5-carboxamide] | 0.899 nM | > 10000 nM
